In this assay the target is Dipeptidyl peptidase 4 (Homo sapiens, UniProt P27487). Description: Dipeptidyl Peptidase Inhibition Assay. The following applies: pH 7.5; 37 °C.

Broadly, the IC50 is the concentration that gives 50% inhibition.

Sequence of Dipeptidyl peptidase 4 (P27487 whole entry): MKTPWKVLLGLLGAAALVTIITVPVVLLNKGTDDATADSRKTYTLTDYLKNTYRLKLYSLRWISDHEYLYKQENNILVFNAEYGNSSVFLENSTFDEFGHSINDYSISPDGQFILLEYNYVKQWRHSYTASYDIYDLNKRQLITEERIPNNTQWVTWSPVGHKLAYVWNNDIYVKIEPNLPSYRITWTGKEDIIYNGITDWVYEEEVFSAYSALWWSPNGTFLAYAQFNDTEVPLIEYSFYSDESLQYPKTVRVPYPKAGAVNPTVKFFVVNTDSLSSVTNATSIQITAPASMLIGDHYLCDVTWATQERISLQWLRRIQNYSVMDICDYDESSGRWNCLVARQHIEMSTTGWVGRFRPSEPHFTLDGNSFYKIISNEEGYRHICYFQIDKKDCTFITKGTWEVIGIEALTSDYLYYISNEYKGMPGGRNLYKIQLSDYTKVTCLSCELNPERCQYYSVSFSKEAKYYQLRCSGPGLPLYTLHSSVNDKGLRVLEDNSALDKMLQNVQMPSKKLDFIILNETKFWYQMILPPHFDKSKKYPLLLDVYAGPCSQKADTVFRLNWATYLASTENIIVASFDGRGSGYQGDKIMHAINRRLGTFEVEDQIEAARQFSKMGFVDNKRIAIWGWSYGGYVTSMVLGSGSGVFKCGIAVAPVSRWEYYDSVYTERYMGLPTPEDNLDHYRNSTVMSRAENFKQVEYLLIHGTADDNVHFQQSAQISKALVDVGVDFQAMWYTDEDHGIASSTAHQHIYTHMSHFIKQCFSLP

`C[C@H](C(=O)N1CCOCC1)[C@@H](C(=O)N(C)C)c1ccc(-c2ccc(F)cc2)cc1` [(2R,3S)-2-[4-(4-fluorophenyl)phenyl]-N,N,3-trimethyl-4-(morpholin-4-yl)-4-oxobutanamide] displayed an IC50 of 520 nM.

`CC(C)[C@H](Oc1ccc(CNC(=O)[C@@H]2CCCN2C(=O)C[C@H](N)Cc2c(F)c(F)c(F)c(F)c2F)cc1)C(=O)O` [(2S)-2-[4-({[(2S)-1-[(3R)-3-amino-4-(2,3,4,5,6-pentafluorophenyl)butanoyl]pyrrolidin-2-yl]formamido}methyl)phenoxy]-3-methylbutanoic acid] displayed an IC50 of 8 nM.
